In paper PMC6274827 (2018) one finds ΔTm and Ka data, which are given here for 2 molecules.

Experiment [1] deals with F21D (DNA, G4) GGGTTAGGGTTAGGGTTAGGG
Nature of the experiment: FRET melting. The following applies: 5 mM K+, 95 mM Li+, 10 mM lithium cacodylate, pH 7.2, 0.2 µM F21D.

Experiment [2] deals with Tel22 (DNA, G4) AGGGTTAGGGTTAGGGTTAGGG
Nature of the experiment: UV-Vis titration, Direct Fit. The conditions noted are these: 5 mM K+, 95 mM Li+; 10 mM lithium cacodylate, pH 7.2; equivalent independent sites assumed; per site.

SMILES strings stand for the structures.

On to `NCCCNCCCCNCCCNC(=O)c1ccc(-c2c3nc(c(-c4ccc(C(=O)NCCCNCCCCNCCCN)cc4)c4ccc([n-]4)c(-c4ccc(C(=O)NCCCNCCCCNCCCN)cc4)c4nc(c(-c5ccc(C(=O)NCCCNCCCCNCCCN)cc5)c5ccc2[n-]5)C=C4)C=C3)cc1.O.[Zn+2]`, for which the ΔTm in experiment [1] (20 eq. compound, weak stabilization up to 8 eq.) was 33 ± 2 °C. Further, the Ka entry in experiment [2] is recorded as “(1.4 ± 0.7) × 10^7 M^-1”.
Consider `NCCCNCCCCNCCCNC(=O)c1ccc(-c2c3nc(c(-c4ccc(C(=O)NCCCNCCCCNCCCN)cc4)c4ccc([nH]4)c(-c4ccc(C(=O)NCCCNCCCCNCCCN)cc4)c4nc(c(-c5ccc(C(=O)NCCCNCCCCNCCCN)cc5)c5ccc2[nH]5)C=C4)C=C3)cc1`, for which the ΔTm in experiment [1] (7.5 eq. compound) is 36 ± 2 °C. Besides, the Ka entry in experiment [2] is listed as “(4.7 ± 0.7) × 10^6 M^-1”.

One may read the ΔTm as the change in melting temperature against a reference sample.
